Source: ChEMBL document CHEMBL4052819 (2017)

Tests used:
Klebsiella pneumoniae [1] = assay: Potentiation of rifampicin-mediated antibacterial activity against Klebsiella pneumoniae ATCC 700603 assessed as decrease in rifampicin MIC at 1.56 to 12.5 ug/ml by broth dilution method relative to control; type: functional
Klebsiella pneumoniae [2] = assay: Potentiation of rifampicin-mediated antibacterial activity against Klebsiella pneumoniae ATCC 13883 assessed as decrease in rifampicin MIC at 1.56 to 12.5 ug/ml by broth dilution method relative to control; type: functional

CC[C@H](C)[C@@H](NC(=O)[C@@H](NC(=O)[C@H](CCC(=O)O)NC(=O)[C@H](Cc1ccccc1)NC(=O)[C@@H](CCN)NC(=O)[C@H](CCN)NC(=O)[C@H](CO)NC(=O)[C@@H](Cc1c[nH]c2ccccc12)NC(=O)[C@@H](CO)NC(=O)CNC(=O)[C@@H](CCN)NC(=O)[C@H](N)C(C)C)C(C)C)C(=O)N[C@@H](C)C(=O)O
fold change (FC) (Klebsiella pneumoniae [1]): 256 - 512 | fold change (FC) (Klebsiella pneumoniae [2]): 256 - 512
